{"source": "patent US8044029B2", "about": "“Sulfatides for treatment of autoimmune disorders” (Torrey Pines Institute for Molecular Studies, priority 2005, dated 2011)", "test_system": "chronic-relapsing EAE in SJL/J mice", "test": "Chronic-relapsing EAE, PLP139-151-immunized SJL/J mice", "assay_type": "in vivo, mouse", "settings": "20 μg intraperitoneally at the onset of EAE, FIG. 3", "description": "(§1) Wild type, SJL/J female mice, 6-8 week of age were immunized once subcutaneously with 75 μg of proteolipid protein peptide PLP139-151 emulsified in incomplete Freund's adjuvant (Difco, Detroit, Mich., USA) supplemented with attenuated M. tuberculosis (DIFCO) to 2 mg/ml. Mice were observed daily for signs of EAE for 50 days. The average disease score for each group was calculated by averaging the maximum severity of all of the affected animals in the group. Disease severity was scored on a 5-point scale, as described earlier: 1, flaccid tail; 2, hind limb weakness; 3, hind limb paralysis; 4, whole body paralysis; 5, moribund or death.\nIn the treatment protocol, 20 μg of bovine brain sulfatide in 200 μl of PBS or vehicle was given intraperitoneally at the onset of EAE and 2 weeks later. […]\nas §1, with “wk” for “week”, “PLP139-151” for “proteolipid protein”, “peptide” for “peptide PLP139-151”, “IFA (DIFCO)” for “incomplete Freund's adjuvant (Difco, Detroit, Mich., USA)”, “Mice were observed daily for signs of EAE for 50 days.” left out, “death. […]” for “death.”", "data": [{"smiles": "CCCCCCCC/C=C\\CCCCCCCCCCCCCC(=O)N[C@@H](CO[C@@H]1O[C@H](CO)[C@H](O)[C@H](OS(=O)(=O)O)[C@H]1O)[C@H](O)/C=C/CCCCCCCCCCCCC", "note": "[cis-tetracosenoyl sulfatide, (2S, 3R, 4E)-N-nervonic-1-[-D-(3-sulfate)-galactopyranosyl]-2-amino-octadecene-3-ol]", "values": [{"measurement": "effect on ongoing chronic-relapsing EAE (disease score, 5-point scale)", "value": "reverses ongoing chronic-relapsing EAE"}]}]}
